The results in this text go back to patent US20120172351A1, “NOVEL FUSED CYCLIC COMPOUND AND USE THEREOF” (priority 2009, published 2012).

The term melting point denotes the temperature, or range, at which the solid turns liquid.

Counter-ions that a name gives are not always drawn. Marks after values point to notes of the source that are not given here.

Data set [1] has as its target T1, human derived GPR40 (Homo sapiens, UniProt O14842).
T1 construct: expressed in transfected cells
The experiment in a line: Agonist action on human derived GPR40: change of intracellular calcium concentration in CHO cells (FLIPRtetra). The class given is cell-based. The note with it: agonist activity of compound at 1 μM, relative to 10 μM γ linolenic acid as 100%, wave peak height; CHO cells stably expressing human GPR40. Here is the method: The CHO cell lines that stably expressed human derived GPR40 were used for the determination of the agonist activity. Unless particularly specified, the CHO cell lines were cultured in an α-MEM medium (Wako Pure Chemical Industries, Ltd.) containing 10% dialyzed fetal bovine serum (TRA Thermo Electron).
The cells cultured almost to confluent on the day before assay were rinsed with PBS (Invitrogen), detached with 0.5 mM EDTA (Wako Pure Chemical Industries, Ltd.), and recovered by centrifugation. The obtained cells were counted, diluted to 2×10^5 cells per 1 mL medium, dispensed by 40 μL per well to a 384 well black clear bottomplate (PE Biosystems), and cultured overnight in a CO2 incubator. Various test compounds were added to CHO cells prepared as mentioned above, and change of intracellular calcium concentration was measured using FLIPRtetra (Molecular Device). For the measurement by this device, a Calcium 4 assay kit (Molecular Devices: R8142) was used.
First, fatty acid free BSA at the final concentration of 0.1% was added to the buffer attached to the kit to prepare an assay buffer. Using the assay buffer, a loading solution with Fluo4 was prepared such that the final concentration of fatty acid free BSA was 0.1% and the final concentration of probenecid was 625 μM. On the other hand, a test compound was diluted with the assay buffer to a given concentration, and dispensed to the polypropylene 384-well plate (sample plate). The medium was removed from the cell culture plate, and the loading solution with Fluo4 was dispensed by 25 μL. After culture in a CO2 incubator at 37° C. for 40 min, a sample plate and a cell plate were simultaneously set on the FLIPRtetra, various test compounds were added by 25 μL according to the program of the device, and change of intracellular calcium concentration was measured. The agonist activity of each compound at 1 μM was calculated as a relative activity value to the activity of 10 μM γ linolenic acid as 100% from the wave peak height.
(In general: Calcium flux is commonly read through the fluorescence of an indicator in the cells.)

The subject of data set [2] is N-STZ-1.5 rat. Description: Oral glucose tolerance test in N-STZ-1.5 rat (type 2 diabetes model). The class given is in vivo. The note with it: male N-STZ-1.5 rats, 1 mg/kg oral, glucose 1.5 g/kg 1 hr after dosing; for Blood glucose lowering rate: glucose AUC 0-120 min vs control group; for Insulin increasing rate: insulin AUC 0-120 min vs control group. Here is the method: The blood glucose increase suppressive action and insulin secretagogue action of the compound of the present invention were evaluated by an oral glucose tolerance test using N-STZ-1.5 rat (TAKEDA RABICS).
Streptozotocin (120 mg/kg) was subcutaneously administered to male Wistar Kyoto rats (1-2 days old) to prepare N-STZ-1.5 rat which is a type 2 diabetes model. The rats were bred under free access to a feed (CE-2, sold by CLEA Japan, Inc.).
Male N-STZ-1.5 rats (21-week-old) were fasted for 19-21 hr, and the body weight was measured. Heparin (Ajinomoto Co., Inc.) was added as an anticoagulant, and aprotinin (SIGMA) was added as a protease inhibitor, and the blood was collected from the tail vein. 0.5% Methylcellulose (control group) or a 0.5% methylcellulose suspension of a test compound (1 mg/kg body weight) was orally administered to the rats of each group (6 per group) at 5 ml/kg and, 1 hr after the administration, a glucose solution (Otsuka Pharmaceutical Factory, Inc.) was orally administered at 1.5 g/5 ml/kg. The blood was collected from the tail vein immediately before glucose loading (0 min value) and 10, 30, 60, 120 min thereafter. The blood was centrifuged and the plasma was separated. The plasma glucose and insulin concentration of the obtained plasma were measured. The plasma glucose was measured by automatic analyzer 7080 (HITACHI), and the insulin concentration was measured by RAT INSULIN RIA KIT (LINCO Research). The glucose AUC and insulin AUC were calculated from the obtained values by the following formulas. Moreover, blood glucose lowering rate and insulin increasing rate were calculated from the obtained AUC by the following formulas. Statistical significance versus control was analyzed by Student's t-test or Aspin-Welch test.
{(0 min plasma glucose)+(10 min plasma glucose)}×10/2+{(10 min plasma glucose)+(30 min plasma glucose)}×20/2+{(30 min plasma glucose)+(60 min plasma glucose)}×30/2+{(60 min plasma glucose)+(120 min plasma glucose)}×60/2
{(0 min plasma insulin)+(10 min plasma insulin)}×10/2+{(10 min plasma insulin)+(30 min plasma insulin)}×20/2+{(30 min plasma insulin)+(60 min plasma insulin)}×30/2+{(60 min plasma insulin)+(120 min plasma insulin)}×60/2
blood glucose lowering rate: [(test compound administration group glucose AUC/control group glucose AUC)−1]×100
insulin increasing rate: [(test compound administration group insulin AUC/control group […] AUC)-1]×100

Data set [3] relates to Wistar fatty rat. Description: Oral glucose tolerance test in Wistar fatty rat. To be noted: female Wistar fatty rats, 1 mg/kg oral, glucose 1 g/kg 1 hr after dosing; glucose AUC 0-120 min vs control group. The class given is in vivo. Here is the method:
The blood glucose increase suppressive action of the compound of the present invention was evaluated by an oral glucose tolerance test using Wistar fatty rat (TAKEDA RABICS).
The animal used was female Wistar fatty rat (prepared by TAKEDA RABICS, 18- to 22-week-old). The rats were bred under free access to a feed (CE-2, sold by CLEA Japan, Inc.).
Female Wistar fatty rats (18- to 22-week-old) were fasted for 19-21 hr, and the body weight was measured. Heparin (Ajinomoto Co., Inc.) was added as an anticoagulant, and aprotinin (SIGMA) was added as a protease inhibitor, and the blood was collected from the tail vein. 0.5% Methylcellulose (control group) or a 0.5% methylcellulose suspension of a test compound (1 mg/kg body weight) was orally administered to the rats of each group (6 per group) at 5 ml/kg and, 1 hr after the administration, a glucose solution (Otsuka Pharmaceutical Factory, Inc.) was orally administered at 1 g/5 ml/kg. […] The plasma glucose of the obtained plasma were measured by automatic analyzer 7080 (HITACHI). The glucose AUC was calculated from the obtained values by the formulas described in Experimental Example 2. Moreover, blood glucose lowering rate was calculated from the obtained AUC by the formulas described in Experimental Example 2. Statistical significance versus control was analyzed by Student's t-test.

T1 sequence (O14842 whole entry): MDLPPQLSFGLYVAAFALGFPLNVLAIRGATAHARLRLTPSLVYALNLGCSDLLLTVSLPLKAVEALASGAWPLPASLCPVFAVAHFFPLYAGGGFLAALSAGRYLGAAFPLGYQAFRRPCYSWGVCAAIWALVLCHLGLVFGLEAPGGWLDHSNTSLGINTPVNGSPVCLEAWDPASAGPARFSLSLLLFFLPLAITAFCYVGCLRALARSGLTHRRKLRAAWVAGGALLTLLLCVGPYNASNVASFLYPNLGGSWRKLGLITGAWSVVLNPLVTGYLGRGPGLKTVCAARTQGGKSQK

`Cc1cc(OCCCS(C)(=O)=O)cc(C)c1-c1cccc2c1OC[C@H]2Nc1ccc2c(c1)OC[C@H]2CC(=O)O` [Example 7, [(3S)-6-{[(3S)-7-{2,6-dimethyl-4-[3-(methylsulfonyl)propoxy]phenyl}-2,3-dihydro-1-benzofuran-3-yl]amino}-2,3-dihydro-1-benzofuran-3-yl]acetic acid] returned a melting point of 169 °C. In data set [1], the “activity (%)” value is reported as 124%. Further, in data set [2], the “Blood glucose lowering rate” value is reported as −20.5%** and the Insulin increasing rate entry was “+39.5%^$”.

Compound `CCCN(c1cc(C)ccn1)c1cccc2c1OC[C@H]2Nc1ccc2c(c1)OC[C@H]2CC(=O)O` [Example 82, [(3S)-6-({(3S)-7-[(4-methylpyridin-2-yl)(propyl)amino]-2,3-dihydro-1-benzofuran-3-yl}amino)-2,3-dihydro-1-benzofuran-3-yl]acetic acid] yielded a melting point of 146 °C. Also, the “activity (%)” value in data set [1] was 129%.

In turn, `Cc1nc(N2CCCC2)nc(C)c1-c1cccc2c1OC[C@H]2Nc1ccc2c(c1)OC[C@H]2CC(=O)O` [Example 79, [(3S)-6-({(3S)-7-[4,6-dimethyl-2-(pyrrolidin-1-yl)pyrimidin-5-yl]-2,3-dihydro-1-benzofuran-3-yl}amino)-2,3-dihydro-1-benzofuran-3-yl]acetic acid] had a melting point of 169 °C. The “activity (%)” value in data set [1] turned out to be 126%.

Take `CCOc1nc2ccc(F)c(F)c2n1-c1cccc2c1OC[C@H]2Nc1ccc2c(c1)OC[C@H]2CC(=O)[O-].[Na+]` [Example 33, sodium [(3S)-6-{[(3S)-7-(2-ethoxy-6,7-difluoro-1H-benzimidazol-1-yl)-2,3-dihydro-1-benzofuran-3-yl]amino}-2,3-dihydro-1-benzofuran-3-yl]acetate]: the “activity (%)” value in data set [1] was 109%. The “Blood glucose lowering rate” value in data set [3] was −19.5%**.

`Cc1nc(N2CCOCC2)nc(C)c1-c1cccc2c1OC[C@H]2Nc1ccc2c(c1)OC[C@H]2CC(=O)O.O` [Example 77-1, Hydrate of [(3S)-6-({(3S)-7-[4,6-dimethyl-2-(morpholin-4-yl)pyrimidin-5-yl]-2,3-dihydro-1-benzofuran-3-yl}amino)-2,3-dihydro-1-benzofuran-3-yl]acetic acid]: in data set [2], the “Blood glucose lowering rate” value is −13.6%^$ and the Insulin increasing rate result was “+40.2%^$”.

Consider `Cc1nc(N2CCOCC2)nc(C)c1-c1cccc2c1OC[C@H]2Nc1ccc2c(c1)OC[C@H]2CC(=O)O` [Example 77, [(3S)-6-({(3S)-7-[4,6-dimethyl-2-(morpholin-4-yl)pyrimidin-5-yl]-2,3-dihydro-1-benzofuran-3-yl}amino)-2,3-dihydro-1-benzofuran-3-yl]acetic acid], for which the melting point came out at 168 °C.

Compound `Cc1nc(N2CCOCC2)nc(C)c1-c1cccc(CNc2ccc3c(c2)OC[C@H]3CC(=O)O)c1C` (as salt: salt) [Example 242, 1,3-dihydroxy-2-(hydroxymethyl)propan-2-aminium [(3S)-6-({3[4,6-dimethyl-2-(morpholin-4-yl)pyrimidin-5-yl]-2-methylbenzyl}amino)-2,3-dihydro-1-benzofuran-3-yl]acetate] had a melting point of 154 °C.

On to `Cc1cc(OC[C@@H]2CCC(=O)N2)cc(C)c1-c1cccc2c1OC[C@H]2Nc1ccc2c(c1)OC[C@H]2CC(=O)O` [Example 8, [(3S)-6-{[(3S)-7-(2,6-dimethyl-4-{[(2S)-5-oxopyrrolidin-2-yl]methoxy}phenyl)-2,3-dihydro-1-benzofuran-3-yl]amino}-2,3-dihydro-1-benzofuran-3-yl]acetic acid], for which the melting point was found to be 161 °C. Besides, the “activity (%)” value in data set [1] is listed as 131%.

With `CCN(c1ccc(C#N)cc1F)c1cccc2c1OC[C@H]2Nc1ccc2c(c1)OC[C@H]2CC(=O)O` [Example 89, [(3S)-6-({(3S)-7-[(4-cyano-2-fluorophenyl)(ethyl)amino]-2,3-dihydro-1-benzofuran-3-yl}amino)-2,3-dihydro-1-benzofuran-3-yl]acetic acid], the “activity (%)” value in data set [1] was 129%.

As for `Cc1oc2cccnc2c1-c1cccc(CNc2ccc3c(c2)OC[C@H]3CC(=O)O)c1C` [Example 221, [(3S)-6-{[2-methyl-3-(2-methylfuro[3,2-b]pyridin-3-yl)benzyl]amino}-2,3-dihydro-1-benzofuran-3-yl]acetic acid], the “activity (%)” value in data set [1] worked out at 126%.

For the compound `CCOc1nc2c(OCC(F)(F)F)cccc2n1-c1cccc(CNc2ccc3c(c2)OC[C@H]3CC(=O)O)c1C` [Example 180, [(3S)-6-({3-[2-ethoxy-4-(2,2,2-trifluoroethoxy)-1H-benzimidazol-1-yl]-2-methylbenzyl}amino)-2,3-dihydro-1-benzofuran-3-yl]acetic acid], the “activity (%)” value in data set [1] is reported as 125%.

`CCOc1nc2ccc(F)cc2n1-c1cccc2c1CCC2Nc1ccc2c(c1)OC[C@H]2CC(=O)[O-].[Na+]` (stereo partly drawn) [Example 227, sodium [(3S)-6-{[4-(2-ethoxy-6-fluoro-1H-benzimidazol-1-yl)-2,3-dihydro-1H-inden-1-yl]amino}-2,3-dihydro-1-benzofuran-3-yl]acetate]: in data set [1], the “activity (%)” value is on record as 105%.

On to `CCc1nc2ccccc2n1-c1cccc2c1OC[C@H]2Nc1ccc2c(c1)OC[C@H]2CC(=O)[O-].[Na+]` [Example 19, sodium [(3S)-6-{[(3S)-7-(2-ethyl-1H-benzimidazol-1-yl)-2,3-dihydro-1-benzofuran-3-yl]amino}-2,3-dihydro-1-benzofuran-3-yl]acetate], for which, in data set [1], the “activity (%)” value is 129%.

As for `COc1ccc2c(c1)nc(C1CC1)n2-c1cccc(CNc2ccc3c(c2)OC[C@H]3CC(=O)O)c1C` [Example 149, [(3S)-6-{[3-(2-cyclopropyl-5-methoxy-1H-benzimidazol-1-yl)-2-methylbenzyl]amino}-2,3-dihydro-1-benzofuran-3-yl]acetic acid], the “activity (%)” value in data set [1] came to 90%.
